This note sets out measurements from ChEMBL document CHEMBL4354832, “Discovery of a Covalent Inhibitor of KRASG12C (AMG 510) for the Treatment of Solid Tumors” (J Med Chem, 2020).

In data set [1] the target is GTPase KRas (Homo sapiens, UniProt P01116). Put plainly: Inhibition of KRAS in human MIAPaca2 cells assessed as decrease in EGF-stimulated ERK1/2 phosphorylation preincubated for 2 hrs followed by EGF stimulation. It is filed as cell-based.
The target in data set [2] is GTPase KRas (Homo sapiens, UniProt P01116, C118A/G12C). Nature of the data set: Inhibition of GDP bound recombinant human His-tagged KRAS G12C/C118A mutant (1 to 169 residues) assessed as reduction in SOS1-mediated GDP/GTP nucleotide exchange by measuring the disruption between GDP-bound recombinant His-tagged KRAS G12C/C118A (1 to 169 residues) and Ras binding domain of GST-tagged c-RAF (1 to 149 residues) preincubated for 5 mins followed by SOS1 and GTP addition and further incubated for 30 mins by AlphaLISA assay.

A short description of data set [3]: Intrinsic clearance in human cryopreserved hepatocytes assessed per 10^6 cells at 0.5 uM measured upto 60 mins by LCMS analysis. The format is ADME, cell-based, Hepatocyte. The settings on record: read-out: CLH.
The subject of another data set is MIA PaCa-2. Put plainly: Antiproliferative activity against human MIAPaCa2 cells harboring KRAS G12C point mutant assessed as cell growth inhibition after 72 hrs by Celltiter-Glo luminescent cell viability assay. To be noted: MIA PaCa-2, 72 h. The format is functional, cell-based.
Data set [4] is described as follows: Oral bioavailability in BALB/c mouse at 10 mg/kg. To be noted: in vivo. The format is ADME, organism-based.
Data set [5] is described as follows: Volume of distribution at steady state in BALB/c mouse at 1 mg/kg, iv or 10 mg/kg, po. The format is ADME, organism-based. The settings on record: in vivo, read-out: Vdss.
The test system of the next data set is A549. Nature of the data set: Antiproliferative activity against human A549 cells harboring KRAS G12S point mutant assessed as cell growth inhibition after 72 hrs by Celltiter-Glo luminescent cell viability assay. It is filed as functional, cell-based. To be noted: A549, 72 h. For orientation: Cellular ATP, detected with luciferase, serves as a proxy for viable cell number.

A short description of data set [6]: Intrinsic clearance in mouse cryopreserved hepatocytes assessed per 10^6 cells at 0.5 uM measured upto 60 mins by LCMS analysis. It is filed as ADME, cell-based, Hepatocyte. To be noted: read-out: CLH.
Data set [7] in a line: Clearance in BALB/c mouse at 1 mg/kg, iv or 10 mg/kg, po. The format is ADME, organism-based. To be noted: in vivo.
Data set [8] is described as follows: Permeability of compound across apical to basolateral membrane in MDCK2 cells at 10 to 50 uM incubated for 2 hrs under shaking condition by LC-MS/MS analysis. It is filed as ADME, cell-based, Canis lupus familiaris, MDCK-II. To be noted: dog, MDCK; read-out: permeability.
A short description of data set [9]: Half life in BALB/c mouse at 1 mg/kg, iv or 10 mg/kg, po. The format is ADME, organism-based. The settings on record: in vivo.
The nature of data set [10]: Solubility of compound in FaSSIF incubated for 48 to 72 hrs under shaking conditions by LCMS analysis. The format is physicochemical.
Data set [11] in a line: Solubility of compound in 0.01N HCl at pH 2 incubated for 48 to 72 hrs under shaking conditions by LCMS analysis. It is filed as physicochemical.
Data set [12] in a line: Solubility of compound in PBS buffer at pH 7.4 incubated for 48 to 72 hrs under shaking conditions by LCMS analysis. It is filed as physicochemical.

pIC50: −log10 of the molar value. Converted amounts (≈) assume the structure as drawn. “And” between values parts separate entries of the source, which are not always exact repeats. Equal entries are not always repeated.

On to `C=CC(=O)N1CCN(c2nc(=O)n(-c3ccccc3C3CC3)c3nc(-c4c(O)cccc4F)c(Cl)cc23)[C@@H](C)C1`, for which the pIC50 (as a rule, the negative decadic logarithm of the IC50, by convention in mol/L) was 6.96 on GTPase KRas [1] and 6.65 at GTPase KRas [2].

As for `C=CC(=O)N1CCN(c2nnc(-c3ccccc3C)c3cc(-c4c(O)cccc4F)c(Cl)cc23)CC1`, the pIC50 at GTPase KRas [1] is 5.48; on GTPase KRas [2], 5.24.

As to `C=CC(=O)N1CCN(c2nnc(-c3ccccc3C(C)C)c3cc(-c4c(O)cccc4F)c(Cl)cc23)CC1`, the values for the pIC50 on GTPase KRas [1] and on GTPase KRas [2] were 5.74 and 6.17, respectively.

For the compound `C=CC(=O)N1CCN(c2nc(=O)n(-c3ccccc3C(C)C)c3cc(-c4c(O)cccc4F)c(Cl)cc23)CC1`, the hepatocyte CLint at 0.5 µM in [3] came out at 56 µL/min/1e6 cells; in data set [6], 195 µL/min/1e6 cells. Also, the negative logarithm of the IC50 (pIC50) is 6.47 and 6.89 on GTPase KRas [1]; 7.48 in the data set with MIA PaCa-2; 4.99 in the data set on A549; 7.00 on GTPase KRas [2]. In addition, in data set [4], the bioavailability (in general, the share of a dose that reaches the circulation, judged against a reference dose that is usually intravenous) is < 0.5%. For the same compound, in data set [5], the Vd came to 0.8 L/kg. The compound further had a clearance in data set [7] of 5 mL/min/kg. Moreover, the Papp A→B at 2 h, up to 50 µM in data set [8] was 2 ×10⁻⁶ cm/s. In [9], the half-life – broadly, the time needed for the level to fall by half in the phase considered – was 204 min. In [10], the thermodynamic solubility – broadly, solubility found after equilibrating the solid with the medium – came to 191 µM (≈ 104 µg/mL).

In the case of `C=CC(=O)N1CCN(c2nnc(-c3ccccc3OC)c3cc(-c4c(O)cccc4F)c(Cl)cc23)CC1`, the values for the negative-log IC50 (pIC50) on GTPase KRas [1] and at GTPase KRas [2] were 5.09 and 5.04, respectively.

For `C=CC(=O)N1CCN(c2nc(=O)n(-c3ccccc3C(C)C)c3cc(-c4ccccc4F)c(Cl)cc23)CC1`, the figures for the hepatocyte CLint at 0.5 µM in [3] and in data set [6] were 197 µL/min/1e6 cells and 415 µL/min/1e6 cells, respectively. The pIC50 is 7.66 with MIA PaCa-2 and 5.19 with A549. Besides, the Papp A→B at 2 h, up to 50 µM in data set [8] is 7 ×10⁻⁶ cm/s. For the same compound, the solubility (thermodynamic) in data set [10] amounted to 344 µM (≈ 183 µg/mL).

Consider `C=CC(=O)N1CCN(c2nc(=O)n(-c3ccccc3C(C)C)c3cc(-c4c(C)ccc5[nH]ncc45)c(Cl)cc23)CC1`, for which the hepatocyte CLint at 0.5 µM in data set [3] was found to be 121 µL/min/1e6 cells; in data set [6], 180 µL/min/1e6 cells. Further, the negative logarithm of the IC50 (pIC50) at GTPase KRas [1] was 8.10; with MIA PaCa-2, 8.40; in the data set with A549, 5.77. In addition, in data set [4], the bioavailability is < 0.5%. Besides, the Vd in data set [5] is 5.3 L/kg. The compound also gave a clearance in data set [7] of 70 mL/min/kg. Moreover, in data set [8], the Papp A→B at 2 h, up to 50 µM was 4 ×10⁻⁶ cm/s. This compound had a half-life in [9] of 168 min. Also, in data set [10], the solubility (thermodynamic) is 218 µM (≈ 124 µg/mL).

Turning to `C=CC(=O)N1CCN(c2nc(=O)n(-c3c(C)ncnc3C(C)C)c3nc(-c4c(O)cccc4F)c(F)cc23)[C@@H](C)C1`, the hepatocyte CLint at 0.5 µM in [3] was 5 µL/min/1e6 cells; in [6], 65 µL/min/1e6 cells. Moreover, the pIC50 in the data set with MIA PaCa-2 was 8.05; in the data set with A549, < 4.30. Further, the thermodynamic solubility in data set [11] is 500 µM (≈ 281 µg/mL); in data set [12], 495 µM (≈ 278 µg/mL); in data set [10], 500 µM (≈ 281 µg/mL). This compound also returned a bioavailability in data set [4] of 10%. Further, in data set [5], the Vd is 1.7 L/kg. For the same compound, the clearance in data set [7] is 78.3 mL/min/kg. Further, the Papp A→B at 2 h, up to 50 µM in data set [8] is < 1 ×10⁻⁶ cm/s. Moreover, in data set [9], the half-life is 18 min.

As for `C=CC(=O)N1CCN(c2nc(=O)n(-c3c(C(C)C)ccnc3C)c3nc(-c4c(O)cccc4F)c(F)cc23)[C@@H](C)C1`, the figures for the hepatocyte CLint at 0.5 µM in data set [3] and in data set [6] were 9 µL/min/1e6 cells and 100 µL/min/1e6 cells, respectively. The pIC50 with MIA PaCa-2 is 7.80; in the data set with A549, 4.31. In addition, the values for the solubility (thermodynamic) in [11], in data set [12] and in [10] were 484 µM (≈ 271 µg/mL), 426 µM (≈ 239 µg/mL) and 477 µM (≈ 267 µg/mL), respectively. In [4], this compound registered a bioavailability of 15%. Further, the Vd in data set [5] came out at 1.1 L/kg. The same compound had a clearance in [7] of 61.7 mL/min/kg. Further, the Papp A→B at 2 h, up to 50 µM in data set [8] stood at 1 ×10⁻⁶ cm/s. The compound also showed a half-life in [9] of 18 min.

Consider `C=CC(=O)N1CCN(c2nnc(-c3ccccc3C3CC3)c3cc(-c4c(O)cccc4F)c(Cl)cc23)CC1`, for which the negative-log IC50 (pIC50) at GTPase KRas [1] was 5.15; on GTPase KRas [2], 5.81.

Turning to `C=CC(=O)N1CCN(c2nc(=O)n(-c3ccccc3C(C)C)c3cc(-c4ccccc4C(F)(F)F)c(Cl)cc23)[C@@H](C)C1`, the hepatocyte CLint at 0.5 µM in [3] was determined as 148 µL/min/1e6 cells; in data set [6] it was 270 µL/min/1e6 cells. Besides, the pIC50 in the data set with MIA PaCa-2 was 7.40; in the data set with A549, 5.13. Moreover, in data set [8], the Papp A→B at 2 h, up to 50 µM stood at 3 ×10⁻⁶ cm/s. This compound showed a thermodynamic solubility in data set [10] of 218 µM (≈ 130 µg/mL).

For the compound `C=CC(=O)N1CCN(c2nc(=O)n(-c3ccccc3C(C)C)c3nc(-c4ccccc4Cl)c(Cl)cc23)[C@@H](C)C1`, the hepatocyte CLint at 0.5 µM in data set [3] was 205 µL/min/1e6 cells; in data set [6] it was 319 µL/min/1e6 cells. Further, the negative-log IC50 (pIC50) is 7.80 with MIA PaCa-2 and 5.15 in the data set with A549. Besides, in [4], the bioavailability is 12%. Further, the Vd in [5] worked out at 4.8 L/kg. Also, the clearance in [7] is 90 mL/min/kg. The Papp A→B at 2 h, up to 50 µM in data set [8] amounted to 12 ×10⁻⁶ cm/s. This compound also gave a half-life in data set [9] of 36 min. Also, the solubility (thermodynamic) in [10] amounted to 175 µM (≈ 98.4 µg/mL).
